Laboratory results as given in patent publication US8062607B2, “Lens care methods and kits” (Novartis AG, priority 2006, dated 2011).

Tests used:
[1] = Colorant stability in lens care solution (visible spectrum); assay type: physicochemical; details: in Aquify MPS
Description: The colorant stability has also been tested for FD&C Blue No 1 in Aquify® MPS stored at 25° and 45° C. for 94 days. […] This gives us a shelf-life estimation based on colorant stability alone of approximately a year for FD&C Blue No 1 in Aquify® MPS. The colorant stability has also been tested for Vitosyn Blue in a lens care solution described above stored at 25° and 45° C. for 52 days. […] This gives a shelf life estimation based on colorant stability alone for approximately 7 months for Vitosyn Blue in the lens care solution.

[2] = Micro testing of dye in Aquify MPS as a stand alone solution; assay type: cell-based; details: dissolved in Aquify MPS
From the text: FD&C Blue No 1, Sanolin Blue, and Remazol Blue dissolved in Aquify® MPS (CIBA Vision) are submitted for micro testing as a stand alone solution.

For `CCN(Cc1cccc(S(=O)(=O)[O-])c1)c1ccc(C(=C2C=CC(=[N+](CC)Cc3cccc(S(=O)(=O)[O-])c3)C=C2)c2ccccc2S(=O)(=O)[O-])cc1.[Na+].[Na+]` [FD&C Blue No 1], the “shelf-life estimation based on colorant stability alone” value [1] was “approximately a year”, the “change of visible spectrum from time 0” value ([1]; 25° and 45° C., 94 days) was “has not changed significantly” and the “micro testing as a stand alone solution” value [2] was “passes all micro testing”.
